Results from patent US20040204590A1, “Ep4 receptor agonist, compositions and methods thereof” (priority 2001, published 2004).

Key:
EP4 mRNA in bone tissue = experiment: EP4 and EP2 mRNA levels in bone tissue of injected rats (Northern blot); assay type: in vivo, rat; settings: injected 3-6 mg/Kg
Protocol: (§1) For mRNA localization experiments, 5-week old Sprague-Dawley rats (Charles River) are euthanized by CO2, their tibiae and calvariae are excised, cleaned of soft tissues and frozen immediately in liquid nitrogen. For EP4 regulation experiments, 6-week old rats are given a single injection of either vehicle (7% ethanol in sterile water) or an anabolic dose of PGE2 (Cayman Chemical, Ann Arbor, Mich.), 3-6 mg/kg in the same vehicle) intraperitoneally. Animals are euthanized at several time points post-injection and their tibiae and calvariae, as well as samples from lung and kidney tissues are frozen in liquid nitrogen.
Total RNA is extracted from the tibial metaphysis or diaphysis and calvaria using a guanidinium isothiocyanate-phenol-chloroform method after pulverizing frozen bone samples by a tissue homogenizer. See P. Chomczynski et al., Single-step method of RNA isolation by acid guanidium thiocyanate-phenol-chloroform extraction., Analyt Biochem, 162, 156-159 (1987), which is incorporated by reference herein in its entirety. RNA samples ([…]) are separated on 0.9% agarose/formaldehyde gels and transferred onto nylon membranes (Boehringer Mannheim, Germany). […]

[1] = tested on: EP4 expression in bone marrow cells; experiment: Localization of EP4 mRNA in bone tissue by in situ hybridization; assay type: in vivo, rat; settings: rats, single anabolic dose
Protocol: as §1
Frozen tibiae are sectioned coronally at […] thickness and sections are mounted on charged slides (Probe On Plus, Fisher Scientific, Springfield, N.J.) and are kept at −70° C. until hybridization. cRNA probes are labeled with ^35S-UPgS (ICN, Costa Mesa, Calif.) using a Riboprobe II kit (Promega Madison, Wis.). Hybridization is performed overnight at 50° C. See M. Weinreb et al., Different pattern of alkaline phosphatase, osteopontin and osteocalcin expression in developing rat bone visualized by in-situ hybridization, J. Bone Miner Res., 5, 831-842 (1990) and D. Shinar et al., Expression of alphav and beta3 integrin subunits in rat osteoclasts in situ, J. Bone Miner. Res., 8, 403-414 (1993), which are both incorporated by reference herein in their entirety. […]

RCT-3 cells [2] = experiment: EP4 mRNA expression in RCT-3 cells (Northern blot); assay type: cell-based, rat
Protocol: (§2) RCT-1 and RCT-3 are clonal cell lines immortalized by SV-40 large T antigen from cells released from fetal rat calvair by a cmbination collagenase/hyaluronidase digestion. RCT-1 cells, derived from cells released during the first 10 minutes of digestion (fraction I), are cultured in RPMI 1640 medium (BRL) with 10% fetal bovine serum and 0.4 mg/ml G418 (BRL). These cells differentiate and express osteoblastic features upon retinoic acid treatment. RCT-3 cells, immortalized from osteoblast-enriched fraction […] cells, are cultured in F-12 medium (BRL) with 5% Fetal bovine serum and 0.4 mg/ml G418. TRAB-11 cells are also immortalized by SV40 large T antigen from adult rat tibia and are cultured in RPMI 1640 medium with 10% FBS and 0.4 mg/ml G418. ROS 17/2.8 rat osteosarcoma cells are cultured in F-12 containing 5% FBS. Osteoblast-enriched (fraction III) primary fetal rat calvaria cells are obtained by collagenase/hyaluronidase digestion of calvariae of 19 day-old rat fetuses. See Rodan et al., Growth stimulation of rat calvaria osteoblastic cells by acidic FGF, Endocrinology, 121, 1919-1923 (1987), which is incorporated by reference herein in its entirety. Cells are released during 30-50 minutes digestion (fraction III) and are cultured in F-12 medium containing 5% FBS. […]

RCT-3 cells [3] = experiment: Effect on intracellular cAMP in RCT-3 cells; assay type: cell-based, rat
Protocol: as §2

RP-1 periosteal cells = experiment: EP4 and EP2 mRNA expression in RP-1 periosteal cells (Northern blot); assay type: cell-based, rat; settings: RP-1 cells
Protocol: RP-1 periosteal cells are spontaneously immortalized from primary cultures of periosteal cells from tibae of 4-week old Sprague-Dawley rats and are cultured in DMEM (BRL, Gaithersburg, Md.) with 10% fetal bovine serum (JRH Biosciences, Lenexa, Kans.).
Total RNA is extracted from the tibial metaphysis or diaphysis and calvaria using a guanidinium isothiocyanate-phenol-chloroform method after pulverizing frozen bone samples by a tissue homogenizer. See P. Chomczynski et al., Single-step method of RNA isolation by acid guanidium thiocyanate-phenol-chloroform extraction., Analyt Biochem, 162, 156-159 (1987), which is incorporated by reference herein in its entirety. RNA samples ([…]) are separated on 0.9% agarose/formaldehyde gels and transferred onto nylon membranes (Boehringer Mannheim, Germany). Membranes are prehybridized in Hybrisol I (Oncor, Gaithersburg, Md.) and 0.5 mg/ml sonicated salmon sperm DNA (Boehringer) at 42° C. for 3 hours and are hybridized at 420C with rat EP2 and mouse EP4 cDNA probes labeled with [^32P]-dCTP (Amersham, Buckinghamshire, UK) by random priming using the rediprime kit (Amersham). After hybridization, membranes are washed 4 times in 2×SSC+0.1% SDS at room temperature for a total of 1 hour and once with 0.2×SSC+0.1% SDS at 550C for 1 hour and then exposed to Kodak XAR 2 film at −70° C. using intensifying screens. […]

[4] = tested on: ROS 17/2.8 rat osteosarcoma cells; experiment: Effect on intracellular cAMP in ROS 17/2.8 cells; assay type: cell-based
Protocol: as §2

TRAB-11 cells = experiment: Effect on intracellular cAMP in TRAB-11 cells; assay type: cell-based, rat
Protocol: as §2

CCCCC[C@H](O)/C=C/[C@H]1[C@H](O)CC(=O)[C@@H]1C/C=C\CCCC(=O)O [PGE2]
EP4 mRNA levels in the tibial diaphysis (EP4 mRNA in bone tissue; five-week-old male rats): rapidly increased | EP2 mRNA in bone tissue (EP4 mRNA in bone tissue; rats): does not induce | expression of EP4 in bone marrow cells [1]: increased | EP4 mRNA levels (RCT-3 cells [2]): no effect | effect on intracellular cAMP (RCT-3 cells [3]): markedly induced | EP4 mRNA levels (RP-1 periosteal cells; 10^−6 M): rapidly increases | EP2 mRNA expression (RP-1 periosteal cells; before or after treatment): not expressed | effect on intracellular cAMP [4]: no effect | effect on intracellular cAMP (TRAB-11 cells): markedly induced
